Source: patent US7592009B2, “Polypeptide ligands for targeting cartilage and methods of use thereof” (Ecole Polytechnique Federale de Lausanne (EPFL), priority 2006, dated 2009)
Where no end group is shown, it is not given here.

T1: MMP-2 (Homo sapiens, UniProt P08253)
T1 sequence (P08253 110-660): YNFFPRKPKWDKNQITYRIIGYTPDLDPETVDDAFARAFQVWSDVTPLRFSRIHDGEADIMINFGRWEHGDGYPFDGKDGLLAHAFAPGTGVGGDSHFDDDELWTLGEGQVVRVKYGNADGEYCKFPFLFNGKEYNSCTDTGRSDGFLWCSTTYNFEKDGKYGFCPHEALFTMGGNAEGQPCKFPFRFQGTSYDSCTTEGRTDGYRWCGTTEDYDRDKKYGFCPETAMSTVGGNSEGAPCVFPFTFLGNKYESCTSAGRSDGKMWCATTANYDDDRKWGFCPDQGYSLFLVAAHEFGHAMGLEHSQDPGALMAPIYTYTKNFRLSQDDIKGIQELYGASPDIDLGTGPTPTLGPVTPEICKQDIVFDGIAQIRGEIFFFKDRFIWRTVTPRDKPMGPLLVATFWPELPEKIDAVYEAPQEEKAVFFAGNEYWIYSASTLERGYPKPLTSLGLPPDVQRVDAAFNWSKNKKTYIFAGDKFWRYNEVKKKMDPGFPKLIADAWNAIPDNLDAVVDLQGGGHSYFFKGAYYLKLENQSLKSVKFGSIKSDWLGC

B1: trTIMP-3: fusion protein of N-TIMP-3 (Cys24 to Asn 143) containing WYRGRL at the C-terminus (protein)
chain: CTCSPSHPQDAFCNSDIVIRAKVVGKKLVKEGPFGTLVYTIKQMKMYRGFSKMPHVQYIHTEASESLCGLKLEVNKYQYLLTGRVYEGKMYTGLCNFVERWDHLTLSQRKGLNYRYHLGCGGGWYRGRL

Legend:
articular cartilage = assay: Competitive binding of free polypeptide or nanoparticles against phage clone C1-3 on articular cartilage; set-up: species or system bovine; conditions: for decrease of phage titers versus control without polypeptide: 10 μM polypeptide, FIG. 3
Method: Cartilage grafts were harvested with 8 and 4 mm biopsy cutters (two-sided surface 1 cm^2 and 0.25 cm^2). A slice with the intact articular surface was removed to expose the phages only to the cartilage matrix below the surface. Affinity selection was preformed in polystyrene 48-well plates, which were blocked for nonspecific adhesion with a blocking solution containing 1% BSA for 2 hours prior to screening. A total of 5 screening rounds was carried out. In the first round 10^13 and in subsequent rounds 10^12 phage virions per ml were exposed to the cartilage graft, washed with PBS/Tween 20 and eluted at low pH. While the first round was supposed to give a high yield at low stringency, subsequent rounds were carried out with increasing stringency to select stronger binders. Conditions were increased from 4 hours of binding at RT and washing with PBS/0.1% Tween to 30 minutes binding at 37° C. with 220 RPM, washing with PBS/1% Tween 20 and the cartilage surface decreased from 1 cm^2 to 0.25 cm^2 in round five. Eluted phage was amplified overnight in E. coli strain TG1 in 2×YT medium and purified by two times PEG/NaCl (2M, 25%) precipitation. In the first round of screening, negative screens against the intact articular surface as well as synovial fluid (50% diluted in PBS to lower viscosity) were carried out in order to eliminate phages binding to these targets. Quantitative titer counts were obtained by spot titering of 15 μl of phage/bacterial culture onto LB-agar/tetracyclin plates and are given in transducing units(TU)/ml. The polypeptide sequences of affinity selected phage specific to the articular cartilage matrix was determined by DNA sequencing (Microsynth AG, Balgach, Switzerland) using the sequencing primer 5′-CAT GTA CCG TAA CAC TGA G (SEQ ID NO:5). Binding specificity was determined by exposing selected phage clones (10^8 TU/ml) to articular cartilage (0.25 cm^2) with and without synovial fluid, to synovial membrane (3×4 mm, 0.24 cm^2) and to polystyrene after blocking. […] The phage clones were identified by DNA sequencing and the corresponding titer counts calculated. For comepetetive binding against free polypeptide or nanoparticles and to obtain a dose-response curve, 10^8 TU/ml of phage and its free polypeptide in different concentrations or nanoparticles were mixed, exposed to articular cartilage and titer counts determined. […]
Based on affinity selection and the binding assays reported herein, the 6-mer polypeptide insert WYRGRL (SEQ ID NO:1) of clone C1-3 as well as its scrambled mismatch YRLGRW (SEQ ID NO:6) were synthesized on solid resin using standard Fmoc chemistry. […] A dose-response curve was determined by serial dilutions of the polypeptide ranging from 50 nM to 10 μM and mixing them with 10^8 TU/ml of phage. […]

MMP-2 = biological target: T1, MMP-2; assay: MMP-2 zymography; assay type: biochemical

Molecule | decrease of phage titers versus control without polypeptide (articular cartilage) | IC50 (articular cartilage; polypeptide 50 nM to 10 μM mixed with 10^8 TU/ml phage C1-3, estimated from curve in FIG. 2, read-out: IC50, inhibition of cartilage binding of phage C1-3) [nM] | decrease of titer counts of recovered phage over the dose-response curve (articular cartilage; polypeptide increased from 50 nM to 10 μM, FIG. 2) | inhibition of MMP-2 activity (MMP-2; equimolar amount of trTIMP-3) | activity of the purified protein (MMP-2; inferred from MMP-2 zymography at equimolar amount) [%]
YRLGRWC (Ac-YRLGRWC) [scrambled mismatch polypeptide of WYRGRL with C-terminal cysteine, reference compound] | did not result in a significant decrease in phage titer |  |  |  | 
WYRGRLC [synthetic polypeptide: insert WYRGRL of clone C1-3 with a cysteine added to the C-terminus] | ~100 fold | ~200 | two orders of magnitude |  | 
B1 |  |  |  | completely inhibits | ~100
